≈ marks a conversion by molar mass, not a printed value. Read-outs that look alike come from different tables or passages of the source.
How the values were obtained:
M. bovis BCG = test: microbe, parasite or virus in culture; type: cell-based, Mycobacterium bovis BCG Pasteur; conditions: for MIC: Mycobacterium tuberculosis variant bovis BCG, BCG; for anti-mycobacterial activity (in words): M. bovis BCG
[1] = Cytotoxicity against HUVECs (WST-8); type: cell-based, human; conditions: human, HUVECs (human umbilical vein endothelial cells), 72 h
Description: (§1) HUVECs (5 × 10^5 cells/vial) was purchased from Kurabo Inc. and grown in HuMedia-EG2 medium with growth supplements (Kurabo Inc., Osaka, Japan). HUVECs in the culture medium was plated into each well of 96-well plates (2 × 10^3 cells/well/100 µL). After 24 h, the serially diluted compounds, which were dissolved in the medium containing no more than 0.5% EtOH, were added, and then the plates were incubated for an additional 72 h in a humidified atmosphere of 5% CO2 at 37 °C. The cell proliferation was detected by WST-8 colorimetric reagent (Nacalai Tesque, Inc., Kyoto, Japan). The IC50 value was determined by linear interpolation from the growth inhibition curve.

HUVECs = test: Cytotoxicity against HUVECs (WST-8); type: cell-based, human
Description: as §1

## COC1=Cc2ccnc3c(NCCc4ccccc4)cnc(c23)C1=O [Compound 1, 3-(phenethylamino)demethyl(oxy)aaptamine, reference compound]
M. bovis BCG; 168 h, read-out: MIC (Aerobic)
  MIC: 1.56 µM (≈ 0.517 µg/mL)
M. bovis BCG; 336 h, read-out: MIC (Hypoxic)
  MIC: 1.56 µM (≈ 0.517 µg/mL)
[1]
  IC50 at 72 h: 1.36 µM

## COc1cc2ccnc(C(=O)NCCc3ccccc3)c2cc1OC [Compound 5, 6,7-Dimethoxy-N-phenethylisoquinoline-1-carboxamide]
M. bovis BCG
  anti-mycobacterial activity (in words): weak anti-mycobacterial activity
M. bovis BCG; 168 h, read-out: MIC (Aerobic)
  MIC: 100 µM (≈ 33.6 µg/mL)
M. bovis BCG; 336 h, read-out: MIC (Hypoxic)
  MIC: 200 µM (≈ 67.3 µg/mL)
[1]
  IC50 at 72 h: 11.9 µM

## c1ccc(CCNc2cnc3ccccc3c2)cc1 [Compound 6, N-Phenethylquinolin-3-amine]
M. bovis BCG; 168 h, read-out: MIC (Aerobic)
  MIC: 6.25 µM (≈ 1.55 µg/mL)
M. bovis BCG; 336 h, read-out: MIC (Hypoxic)
  MIC: 50 µM (≈ 12.4 µg/mL)
[1]
  IC50 at 72 h: 18 µM

## c1ccc(CCNc2cncc3cccnc23)cc1 [Compound 7, N-Phenethyl-1,6-naphthyridin-8-amine]
M. bovis BCG
  anti-mycobacterial activity (in words): weak anti-mycobacterial activity
M. bovis BCG; 168 h, read-out: MIC (Aerobic)
  MIC: 100 µM (≈ 24.9 µg/mL)
M. bovis BCG; 336 h, read-out: MIC (Hypoxic)
  MIC: 50 µM (≈ 12.5 µg/mL)
[1]
  IC50 at 72 h: 8.1 µM

## c1ccc(CCNc2cccnc2)cc1 [Compound 8, N-Phenethylpyridin-3-amine]
M. bovis BCG
  anti-mycobacterial activity (in words): weak anti-mycobacterial activity
M. bovis BCG; 168 h, read-out: MIC (Aerobic)
  MIC: 200 µM (≈ 39.7 µg/mL)
M. bovis BCG; 336 h, read-out: MIC (Hypoxic)
  MIC: 200 µM (≈ 39.7 µg/mL)
[1]
  IC50 at 72 h: > 100 µM

## O=C1C=CC(=O)c2ncc(NCCc3ccccc3)cc21 [Compound 25, 3-(Phenethylamino)quinoline-5,8-dione]
M. bovis BCG
  anti-mycobacterial activity (in words): weakened anti-mycobacterial activity
M. bovis BCG; 168 h, read-out: MIC (Aerobic)
  MIC: 100 µM (≈ 27.8 µg/mL)
M. bovis BCG; 336 h, read-out: MIC (Hypoxic)
  MIC: > 200 µM
[1]
  IC50 at 72 h: < 1 µM
HUVECs
  cytotoxicity (in words): enhanced cytotoxicity

## COC1=CC(=O)c2cc(NCCc3ccccc3)cnc2C1=O [Compound 32, 7-Methoxy-3-(phenethylamino)quinoline-5,8-dione]
M. bovis BCG
  anti-mycobacterial activity (in words): weakened anti-mycobacterial activity
M. bovis BCG; 168 h, read-out: MIC (Aerobic)
  MIC: 25 µM (≈ 7.71 µg/mL)
M. bovis BCG; 336 h, read-out: MIC (Hypoxic)
  MIC: 50 µM (≈ 15.4 µg/mL)
[1]
  IC50 at 72 h: < 1 µM
HUVECs
  cytotoxicity (in words): enhanced cytotoxicity

## O=c1c(NCCc2ccccc2)c[nH]c2ccccc12 [Compound 35, 3-(Phenethylamino)quinolin-4(1H)-one]
M. bovis BCG
  anti-mycobacterial activity (in words): no anti-mycobacterial or cytotoxic activity
M. bovis BCG; 168 h, read-out: MIC (Aerobic)
  MIC: > 200 µM
M. bovis BCG; 336 h, read-out: MIC (Hypoxic)
  MIC: > 200 µM
[1]
  IC50 at 72 h: > 100 µM
HUVECs
  cytotoxicity (in words): no anti-mycobacterial or cytotoxic activity

## O=C(Cc1ccccc1)Nc1cnc2ccccc2c1 [Compound 36, 2-Phenyl-N-(quinolin-3-yl)acetamide]
M. bovis BCG
  anti-mycobacterial activity (in words): significantly weakened anti-mycobacterial activity
M. bovis BCG; 168 h, read-out: MIC (Aerobic)
  MIC: 100 µM (≈ 26.2 µg/mL)
M. bovis BCG; 336 h, read-out: MIC (Hypoxic)
  MIC: 100 µM (≈ 26.2 µg/mL)
[1]
  IC50 at 72 h: 4.9 µM

## CN(CCc1ccccc1)c1cnc2ccccc2c1 [Compound 37, N-Methyl-N-phenethylquinolin-3-amine]
M. bovis BCG
  anti-mycobacterial activity (in words): antibacterial activity comparable to that of 6
M. bovis BCG; 168 h, read-out: MIC (Aerobic)
  MIC: 6.25 µM (≈ 1.64 µg/mL)
M. bovis BCG; 336 h, read-out: MIC (Hypoxic)
  MIC: 50 µM (≈ 13.1 µg/mL)
[1]
  IC50 at 72 h: 16 µM

## C#CCN(CCc1ccccc1)c1cnc2ccccc2c1 [Compound 38, N-Phenethyl-N-(prop-2-yn-1-yl)quinolin-3-amine]
M. bovis BCG
  anti-mycobacterial activity (in words): significantly weakened anti-mycobacterial activity
M. bovis BCG; 168 h, read-out: MIC (Aerobic)
  MIC: 100 µM (≈ 28.6 µg/mL)
M. bovis BCG; 336 h, read-out: MIC (Hypoxic)
  MIC: 100 µM (≈ 28.6 µg/mL)
[1]
  IC50 at 72 h: 18 µM

## c1ccc(CCOc2cnc3ccccc3c2)cc1 [Compound 40, 3-Phenethoxyquinoline]
M. bovis BCG
  anti-mycobacterial activity (in words): significantly weakened anti-mycobacterial activity
M. bovis BCG; 168 h, read-out: MIC (Aerobic)
  MIC: 50 µM (≈ 12.5 µg/mL)
M. bovis BCG; 336 h, read-out: MIC (Hypoxic)
  MIC: 100 µM (≈ 24.9 µg/mL)
[1]
  IC50 at 72 h: 11 µM

## c1ccc2ncc(NCCC3CCCCC3)cc2c1 [Compound 42, N-(2-Cyclohexylethyl)quinolin-3-amine]
M. bovis BCG; 168 h, read-out: MIC (Aerobic)
  MIC: 50 µM (≈ 12.7 µg/mL)
M. bovis BCG; 336 h, read-out: MIC (Hypoxic)
  MIC: 100 µM (≈ 25.4 µg/mL)
[1]
  IC50 at 72 h: 15 µM

## c1ccc2ncc(NCCc3cccc4ccccc34)cc2c1 [Compound 43, N-(2-(Naphthalen-1-yl)ethyl)quinolin-3-amine]
M. bovis BCG
  anti-mycobacterial activity (in words): markedly reduced anti-mycobacterial activity
M. bovis BCG; 168 h, read-out: MIC (Aerobic)
  MIC: 100 µM (≈ 29.8 µg/mL)
M. bovis BCG; 336 h, read-out: MIC (Hypoxic)
  MIC: > 200 µM
[1]
  IC50 at 72 h: 11 µM

## c1ccc2cc(CCNc3cnc4ccccc4c3)ccc2c1 [Compound 44, N-(2-(Naphthalen-2-yl)ethyl)quinolin-3-amine]
M. bovis BCG
  anti-mycobacterial activity (in words): good anti-mycobacterial activity under aerobic and hypoxic conditions
M. bovis BCG; 168 h, read-out: MIC (Aerobic)
  MIC: 6.25 µM (≈ 1.86 µg/mL)
M. bovis BCG; 336 h, read-out: MIC (Hypoxic)
  MIC: 12.5 µM (≈ 3.73 µg/mL)
[1]
  IC50 at 72 h: 13 µM

## c1csc(CCNc2cnc3ccccc3c2)c1 [Compound 45, N-(2-(Thiophen-2-yl)ethyl)quinolin-3-amine]
M. bovis BCG; 168 h, read-out: MIC (Aerobic)
  MIC: 6.25 µM (≈ 1.59 µg/mL)
M. bovis BCG; 336 h, read-out: MIC (Hypoxic)
  MIC: 50 µM (≈ 12.7 µg/mL)
[1]
  IC50 at 72 h: 14 µM

## C#CCCNc1cnc2ccccc2c1 [Compound 46, N-(But-3-yn-1-yl)quinolin-3-amine]
M. bovis BCG; 168 h, read-out: MIC (Aerobic)
  MIC: > 200 µM
M. bovis BCG; 336 h, read-out: MIC (Hypoxic)
  MIC: > 200 µM
[1]
  IC50 at 72 h: 53 µM

## NNC(=O)c1ccncc1 [isoniazid, reference compound]
M. bovis BCG; 168 h, read-out: MIC (Aerobic)
  MIC: 0.39 µM (≈ 0.0535 µg/mL)
M. bovis BCG; 336 h, read-out: MIC (Hypoxic)
  MIC: > 200 µM

Reference: paper PMC9781020, “Anti-Mycobacterial N-(2-Arylethyl)quinolin-3-amines Inspired by Marine Sponge-Derived Alkaloid” (Molecules, 2022)
